# In patent US20100041632A1, “USES OF THE CARBOXY-AMIDO-TRIAZOLE COMPOUNDS AND SALTS THEREOF” (priority 2006, published 2010):
# Assays:
# TNF-α = TNF-α levels in paw tissue and serum of adjuvant arthritis rat (ELISA); format: in vivo; conditions: administered in combination with CAI
# Description: (§1) Blood was collected from eve socket on day 29 and left in room temperature to allow coagulating. Then serum was separated by centrifugation at 3000 rpm for 10 min and kept in −20° C. After animals were sacrificed, the subcutaneous tissue of the right hind paw and that surrounding the tarsotibial joints was removed, broke into pieces, and placed in 5 ml normal saline (0.9%). The tissues were homogenized in a high speed homogenizer. Then the homogenate was centrifuged at 4° C. and 10,000 rpm for 15 min. The supernatants were collected and stored at −20° C. until further analysis.
# (§2) IL-1β and TNF-α levels in paw tissue and serum were measured using specific rat ELISA kits according to the manufacturer's instructions.
# IL-1β = IL-1β levels in paw tissue and serum of adjuvant arthritis rat (ELISA); format: in vivo; conditions: administered in combination with CAI
# Description: as §1, with “The adjuvant arthritis rat was prepared as described in example 8. Treatment was performed as described in example 8. Blood” for “Blood”
# as §2
# Wistar rats = assay: Adjuvant induced arthritis (AA) of rat, paw oedema; format: in vivo
# Description: Negative control (AA+NS): […] positive control (AA+Dex): dexamethasone, i.p., 0.067 mg/kg/day. Vehicle control (AA+PEG400): […] CAI (AA+CAI): 20 mg/ml CAI, ig, 0.1 ml/100 g/day (20 mg/kg/day). Combination (AA+CAI+Dex): dexamethasone, 0.067 mg/kg/day (i.p.) plus CAI 20 mg/kg/day (p.o.). Normal volumes of left and right hind paw were measured before adjuvant injection. […]
# Kunming mice [1] = assay: Croton oil-induced ear edema mouse model; format: in vivo; conditions: ear weight difference 4 hours after 2% croton oil; CAI/analogs 2 mg/ml ig, dexamethasone 0.2 mg/ml ip, 0.1 ml/10 g/day, 3 days
# Description: Male Kunming mice, weighted 18-22 g, were randomly divided to the following experiment groups, 20 mice/group:
# Negative control: normal saline was injected (ig), 0.1 ml/10 g/day for 3 consecutive days.
# Vehicle control: PEG400 was injected (ig), […] for 3 consecutive days.
# Positive control: Dexamethasone (0.2 mg/ml) was injected (ip), 0.1 ml/10 g/day for 3 consecutive days.
# Test group: CAI or its analogs (2 mg/ml, analogs are as described in example 5) was administered (ig), 0.1 ml/10 g/day for 3 consecutive days.
# 8 hours after the last administration, 20 μl of croton oil solution (2%) was applied to the right ear of each mouse. The left ear remained untreated as control. The animals were sacrificed 4 hours later, and a piece of tissue was punched from the same position of the treated and untreated ear. The tissues were weighed on a 0.1 mg balance. The difference in weight between the two pieces of tissue of each mouse was taken as a measure of swelling intensity.
# rats = assay: Granulomatous tissue formation (implanted tampon); format: in vivo; conditions: 7 days; CAI 20 mg/kg/day p.o.; dexamethasone 0.067 mg/kg/day i.p.
# Description: 44 rats (160 g) were randomly divided into 4 groups (11 rats/group). Animals were slightly anaesthetized by ether. After sterilization, the groin was cut bilaterally. A sterile tampon (50 mg) was implanted (sc). On the same day, the following treatments were administered: N.S. (i.p., control group), 0.067 mg/kg/day dexamethasone (i.p., positive control), 20 mg/kg/day CAI (p.o., dissolved in PEG 400, test group) and 0.067 mg/kg/day dexamethasone+20 mg/kg/day CAI (p.o., dissolved in PEG 400, combination group). After 7 days administration, the animals were sacrificed. The cotton was removed. The granulomatous tissue was dried at 60° C. oven for 12 hr and weighed. Increment in the dry weight of the tissue was taken as measure of granuloma formation. The Increment was adjusted for respective body weight, and the mean value for each group was calculated.
# Kunming mice [2] = assay: Formalin test (analgesic effect); format: in vivo
# Description: 320 Kunming mice (18-22 g, half male and half female) were divided into 4 groups randomly with 80 animals in each group.
# Control group with dissolvent (PEG400/N.S.): 10 μl PEG400 was administered (ig) twice with the interval of 24 hours. The pain intensity test was carried out 8 hours after the second administration. 200 μl N.S. is injected (sc) 5 minutes before the test.
# (§3) Morphine/PEG400 group: 10 μl PEG400 was administered (ig) twice with the interval of 24 hours. The pain intensity test was carried out 8 hours after the second administration. Morphine (2 mg/kg body weight) was injected (sc) 5 minutes before the test.
# (§4) CAI/N.S. group: CAI (20 mg/kg body weight, 2 mg/ml) was administered (ig) twice with the interval of 24 hours. The pain intensity test was carried out 8 hours after the second administration. 200 μl N.S. was injected (sc) 5 minutes before the test.
# (§5) The pain intensity test was carried out 8 hours after the second administration. Morphine (2 mg/kg body weight) was injected (sc) 5 minutes before the test.
# 5 minutes after the morphine or N.S. injection, 20 μl 2% formalin was injected (sc) into the subplantar space of the hind paw. The animals were placed immediately in a glass cylinder hanging on a holder, with a mirror placed below with 30° slope to observe the paw responses. The pain responses of the animals with injected paws were recorded; a pain ranking was recorded as follows: 3=the injected paw is licked, bitten, or shaken; 2=the injected paw is elevated and is not in contact with any other surface; 1=the injected paw has little or no weight on it; 0=the injected paw is not favored. The duration of each of the 4 behavioral categories was recorded. The observation lasted for 15 minutes. A pain intensity score was calculated by multiplying the amount of time spent in each category by its assigned category score and adding these products together.
# Kunming mice [3] = assay: Hot plate test (analgesic effect); format: in vivo
# Description: Kunming mice (18-22 g, female) were randomly divided into 4 groups with 20 animals per group.
# (§6) Control group with dissolvent: 10 μl PEG400 was administered (ig) twice with the interval of 24 hours. The pain intensity test was carried out 8 hours after the second administration. 200 μl N.S. was injected (sc) 5 minutes before the test.
# as §3, §4, §5
# The mice were placed onto a hot plate (53±0.5° C.) and the latency periods (second) of hopping responses were recorded as the pain threshold index.
# Kunming mice [4] = assay: Radiant heat test (tail-flick); format: in vivo
# Description: The radiant heat dolorimeter (Collumbus Instruments) is used in this model with the tail-flick mode and the exposure rate of 20. The latency periods (TFL) starting from the beginning of exposure to the tail-flick responses were recorded as the pain threshold. The exposure time lasted for 16 seconds.
# Kunming mice (18-22 g, male) are tested for the basic pain threshold before the test with drug administration, and those with pain threshold longer than 16 seconds are excluded. The selected mice are divided into 4 groups with 15 animals per group.
# as §6, §3, §4
# The pain intensity test was carried out 8 hours after the second administration, morphine (2 mg/kg body weight) was injected (sc) 5 minutes before the test.
# The pain threshold of each mouse was tested before and after morphine or N.S. injection. The values after drug administration minus those before drug administration were considered to be the changing index of pain threshold.
# Kunming mice [5] = assay: Effect of CAI on drug addiction caused by morphine (naloxone-induced jumping)
# Description: 160 Kunming mice (18-22 g, half male and half female) were divided into 4 groups randomly, with 40 mice per group:
# Control group with solvent, PEG400/N.S. (10 μl/g/day PEG400, (ig), 4 days);
# Group treated with CAI, CAI/N.S. (CAI is resolved in PEG400 to reach a final concentration of […], 20 mg CAI/kg/day was administered (ig) for 4 days, N.S. was taken according to morphine administration in table 1);
# Group treated with morphine, PEG400/morphine (10 μl/g/day PEG400 was administered (ig) for 4 days, morphine was administered according to the table below);
# 4 hours after the morphine administration on the fifth day, animals of each group was injected (ip) with 1 mg/kg naloxone and then put into a tank (5000 ml) immediately. The jump frequency in 30 minutes was recorded. Two-factor analysis of variance by SPSS was performed to analyse the experiment results.
structure (smiles),measurement,setting,value
CC(=O)O.NC(=O)c1nnn(Cc2cc(Cl)c(C(=O)c3ccc(Cl)cc3)c(Cl)c2)c1N [CAI acetate],Inhibitory effect on serum levels of TNF-α (in words),TNF-α,obvious and even more pronounced
same,Inhibitory effect on serum levels of IL-1β (in words),IL-1β,obvious and even more pronounced
Cl.NC(=O)c1nnn(Cc2cc(Cl)c(C(=O)c3ccc(Cl)cc3)c(Cl)c2)c1N [CAI hydrochlorate],Inhibitory effect on serum levels of TNF-α (in words),TNF-α,obvious and even more pronounced
same,Inhibitory effect on serum levels of IL-1β (in words),IL-1β,obvious and even more pronounced
"C[C@@H]1C[C@H]2[C@@H]3CCC4=CC(=O)C=C[C@]4(C)[C@@]3(F)[C@@H](O)C[C@]2(C)[C@@]1(O)C(=O)CO [dexamethasone, reference compound]","Primary paw oedema (%), mean ± std","Wistar rats; 1 d, CAI 20 mg/kg/day ig, Dex 0.067 mg/kg/day i.p.",111.3 ± 13.6 %
same,"Primary paw oedema (%), mean ± std",Wistar rats; 2 d,121.9 ± 16.0 %
same,"Primary paw oedema (%), mean ± std",Wistar rats; 5 d,107.4 ± 12.5 %
same,"Primary paw oedema (%), mean ± std",Wistar rats; 8 d,103.6 ± 14.0 %
same,"Primary paw oedema (%), mean ± std",Wistar rats; 11 d,100.3 ± 21.0 %
same,"Primary paw oedema (%), mean ± std",Wistar rats; 14 d,100.0 ± 11.3 %
same,"Secondary paw oedema (%), mean ± std","Wistar rats; 14 d, right hind paw",1.1 ± 1.0 %
same,"Primary paw oedema (%), mean ± std",Wistar rats; 17 d,95.3 ± 15.7 %
same,"Secondary paw oedema (%), mean ± std",Wistar rats; 17 d,1.9 ± 1.4 %
same,"Primary paw oedema (%), mean ± std",Wistar rats; 20 d,83.9 ± 24.0 %
same,"Secondary paw oedema (%), mean ± std",Wistar rats; 20 d,2.8 ± 0.9 %
same,"Primary paw oedema (%), mean ± std",Wistar rats; 23 d,80.4 ± 17.8 %
same,"Secondary paw oedema (%), mean ± std",Wistar rats; 23 d,4.6 ± 1.4 %
same,"Primary paw oedema (%), mean ± std",Wistar rats; 26 d,78.6 ± 23.1 %
same,"Secondary paw oedema (%), mean ± std",Wistar rats; 26 d,3.6 ± 1.7 %
same,"Primary paw oedema (%), mean ± std",Wistar rats; 29 d,73.9 ± 18.0 %
same,"Secondary paw oedema (%), mean ± std",Wistar rats; 29 d,2.5 ± 1.7 %
same,Swelling intensity (mg) mean ± std,Kunming mice [1],1.5 ± 0.4 mg
same,granulomatous tissue:bady weight ratio (mean ± std),rats,0.064 ± 0.00495
"CN1CC[C@]23c4c5ccc(O)c4O[C@H]2[C@@H](O)C=C[C@H]3[C@H]1C5 [morphine, reference compound]",Pain intensity score (mean ± std),"Kunming mice [2]; 2% formalin sc hind paw, 15 minutes observation, CAI 20 mg/kg ig twice, morphine 2 mg/kg sc",756 ± 441
same,Analgesic effect in formalin test (in words),Kunming mice [2]; pain scores compared with the control group,decrease significantly
same,"Pain threshold (sec, mean ± std)","Kunming mice [3]; hot plate 53±0.5° C., latency of hopping response, CAI 20 mg/kg ig twice, morphine 2 mg/kg sc",31.9 ± 12.1 s
same,Analgesic effect in hot plate test (in words),Kunming mice [3]; two-factor ANOVA,extends the pain response time very significantly
same,Analgesic effect in radiant heat test (in words),Kunming mice [4]; compared with the control group,extended the pain threshold time very significantly
same,"Pain threshold change (seconds, mean ± std)","Kunming mice [4]; tail-flick latency after minus before drug, CAI 20 mg/kg ig twice, morphine 2 mg/kg sc",6.95 ± 5.69 s
same,Mean number of jump,"Kunming mice [5]; jump frequency in 30 minutes after naloxone 1 mg/kg ip, CAI 20 mg/kg/day ig 4 days, morphine per Table 1, mean ± std",41 ± 58
same,Addiction / withdrawal syndrome (in words),"Kunming mice [5]; naloxone-induced jumping, two-factor ANOVA vs PEG400/N.S.",causes obvious withdrawal syndrome
